Results from article PMC8718961, “The CbbQO-type rubisco activases encoded in carboxysome gene clusters can activate carboxysomal form IA rubiscos” (The Journal of Biological Chemistry, 2021).

Assays:
[1] = target: T1, AfL2S2 (form IA^C carboxysomal rubisco) (Acidithiobacillus ferrooxidans, UniProt B7JB30, V471A/N472H/R473K); experiment: inhibited ECM-CABP (ECMC) complex, reactivation by CbbQO activase, coupled spectrophotometric rubisco assay; assay type: biochemical; settings: 20 mM NaHCO3, Mg2+, 25 °C; PEG 3350; active site, tight-binding transition-state analog; printed as VNR C terminus substituted with AHK
T1 construct: gene cbbL1; recombinant E. coli BL21(DE3); large and small subunits; anion exchange and size exclusion

[2] = target: T2, AfL2S2 (form IA^C carboxysomal rubisco) (Acidithiobacillus ferrooxidans, UniProt B7JB30, N472H); experiment: as above; assay type: biochemical; settings: 20 mM NaHCO3, Mg2+, 25 °C; PEG 3350; active site, tight-binding transition-state analog
T2 construct: gene cbbL1; recombinant E. coli BL21(DE3); large and small subunits; anion exchange and size exclusion

[3] = target: T3, AfL2S2 (form IA^C carboxysomal rubisco) (Acidithiobacillus ferrooxidans, UniProt B7JB30); experiment: as above; assay type: biochemical; settings: 20 mM NaHCO3, Mg2+, 25 °C; PEG 3350; active site, tight-binding transition-state analog
T3 construct: gene cbbL1; recombinant E. coli BL21(DE3); large and small subunits; anion exchange and size exclusion

[4] = target: T4, HnLS (form IA^C carboxysomal rubisco) (Halothiobacillus neapolitanus, UniProt O85040); experiment: as above; assay type: biochemical; settings: 20 mM NaHCO3, Mg2+, 25 °C; PEG 3350; active site, tight-binding transition-state analog
T4 construct: gene cbbL; recombinant E. coli BL21(DE3), pET30bHnLS (NdeI/HindIII); large and small subunits; anion exchange and size exclusion

[5] = target: T5, AfQ1O1 (form IA^Q-associated CbbQO rubisco activase) (Acidithiobacillus ferrooxidans, UniProt B7JA26); experiment: ATPase, coupled spectrophotometric assay; assay type: biochemical; settings: 0.27 µM oligomer, 25 °C
T5 construct: gene cbbQ-1; recombinant E. coli BL21(DE3), pHueAfCbbQ1 and pBad33UbAfcbbO1; CbbQ hexamer with CbbO; with CbbO protein (von Willebrand factor A domain, rubisco activase adaptor)
T5 sequence (B7JA26 1-267): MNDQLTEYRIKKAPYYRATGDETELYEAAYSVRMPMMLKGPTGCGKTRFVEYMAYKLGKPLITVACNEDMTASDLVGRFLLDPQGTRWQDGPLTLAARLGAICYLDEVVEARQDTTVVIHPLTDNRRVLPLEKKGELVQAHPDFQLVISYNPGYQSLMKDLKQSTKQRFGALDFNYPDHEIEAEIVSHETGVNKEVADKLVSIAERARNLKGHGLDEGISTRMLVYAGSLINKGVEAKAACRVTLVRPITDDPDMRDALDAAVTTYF
T5 sequence (B7JA27 1-772 partner): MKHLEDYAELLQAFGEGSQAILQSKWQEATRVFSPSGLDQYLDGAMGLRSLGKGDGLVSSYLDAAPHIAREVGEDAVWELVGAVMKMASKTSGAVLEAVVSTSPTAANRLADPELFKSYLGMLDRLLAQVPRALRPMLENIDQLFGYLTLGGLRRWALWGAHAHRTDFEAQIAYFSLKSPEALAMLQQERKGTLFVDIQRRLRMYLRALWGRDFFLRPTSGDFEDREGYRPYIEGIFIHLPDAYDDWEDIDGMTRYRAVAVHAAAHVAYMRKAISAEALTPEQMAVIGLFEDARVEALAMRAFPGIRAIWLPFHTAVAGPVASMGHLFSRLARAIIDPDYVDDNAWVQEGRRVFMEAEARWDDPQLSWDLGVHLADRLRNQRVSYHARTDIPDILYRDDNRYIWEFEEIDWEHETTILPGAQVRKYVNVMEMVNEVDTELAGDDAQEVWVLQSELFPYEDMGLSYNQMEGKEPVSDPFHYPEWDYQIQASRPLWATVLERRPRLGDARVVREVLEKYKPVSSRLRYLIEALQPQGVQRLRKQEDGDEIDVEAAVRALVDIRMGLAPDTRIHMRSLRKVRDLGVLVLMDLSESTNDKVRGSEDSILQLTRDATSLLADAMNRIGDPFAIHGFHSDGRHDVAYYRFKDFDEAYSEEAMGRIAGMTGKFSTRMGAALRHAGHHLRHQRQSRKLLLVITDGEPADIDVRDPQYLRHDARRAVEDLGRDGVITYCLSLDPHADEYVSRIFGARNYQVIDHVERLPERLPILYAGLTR

[6] = target: T6, AfQ3O3 (carboxysomal CbbQO rubisco activase) (Acidithiobacillus ferrooxidans, UniProt B7JB17); experiment: ATPase, coupled spectrophotometric assay; assay type: biochemical; settings: 0.27 µM oligomer, 25 °C
T6 construct: gene p30; recombinant E. coli BL21(DE3), pHue and pBad33 (ubiquitin-type) vectors; CbbQ hexamer with CbbO; with CbbO protein (von Willebrand factor A domain, rubisco activase adaptor)

[7] = target: A. ferrooxidans carboxysomal form IA^C rubisco with the last three residues of the large subunit changed from VNR to AHK (Acidithiobacillus ferrooxidans ATCC23270)
[8] = target: A. ferrooxidans carboxysomal form IA^C rubisco with N472H in the large subunit (Acidithiobacillus ferrooxidans ATCC23270)
[9] = target: T3, AfL2S2 (form IA^C carboxysomal rubisco); experiment: RuBP release rate from apo-rubisco-RuBP (ER) complex, carboxylation time course; assay type: biochemical; settings: apoenzyme with 0.4 mM RuBP; assay 50 mM NaHCO3, 1 mM RuBP, 25 °C; active site
[10] = target: T7, AfL1S1 (form IA^Q rubisco) (Acidithiobacillus ferrooxidans, UniProt B7JA24); experiment: as above; assay type: biochemical; settings: apoenzyme with 0.4 mM RuBP; assay 50 mM NaHCO3, 1 mM RuBP, 25 °C; active site
T7 construct: gene cbbL2; recombinant E. coli BL21(DE3); large and small subunits; anion exchange and size exclusion

[11] = target: T1, AfL2S2 (form IA^C carboxysomal rubisco); experiment: spontaneous RuBP release from ER complex; assay type: biochemical; settings: apoenzyme with RuBP; 25 °C; active site; printed as VNR C terminus substituted with AHK
[12] = target: T2, AfL2S2 (form IA^C carboxysomal rubisco); experiment: spontaneous RuBP release from ER complex; assay type: biochemical; settings: apoenzyme with RuBP; 25 °C; active site
SynLS (form IB rubisco) = target: T8, SynLS (form IB rubisco) (Synechococcus elongatus, UniProt P00880); experiment: RuBP release rate from apo-rubisco-RuBP (ER) complex, carboxylation time course; assay type: biochemical; settings: apoenzyme with 0.4 mM RuBP; assay 50 mM NaHCO3, 1 mM RuBP, 25 °C; active site
T8 construct: gene cbbL; large and small subunits

[13] = target: T4, HnLS (form IA^C carboxysomal rubisco); experiment: as above; assay type: biochemical; settings: apoenzyme with 0.4 mM RuBP; assay 50 mM NaHCO3, 1 mM RuBP, 25 °C; active site
[14] = target: A. ferrooxidans carboxysomal form IA^C rubisco with the last three residues of the large subunit changed from VNR to AHK (Acidithiobacillus ferrooxidans ATCC23270); remark: listed apart in the source
[15] = target: A. ferrooxidans carboxysomal form IA^C rubisco with N472H in the large subunit (Acidithiobacillus ferrooxidans ATCC23270); remark: listed apart in the source

T3 sequence (B7JB30 whole entry): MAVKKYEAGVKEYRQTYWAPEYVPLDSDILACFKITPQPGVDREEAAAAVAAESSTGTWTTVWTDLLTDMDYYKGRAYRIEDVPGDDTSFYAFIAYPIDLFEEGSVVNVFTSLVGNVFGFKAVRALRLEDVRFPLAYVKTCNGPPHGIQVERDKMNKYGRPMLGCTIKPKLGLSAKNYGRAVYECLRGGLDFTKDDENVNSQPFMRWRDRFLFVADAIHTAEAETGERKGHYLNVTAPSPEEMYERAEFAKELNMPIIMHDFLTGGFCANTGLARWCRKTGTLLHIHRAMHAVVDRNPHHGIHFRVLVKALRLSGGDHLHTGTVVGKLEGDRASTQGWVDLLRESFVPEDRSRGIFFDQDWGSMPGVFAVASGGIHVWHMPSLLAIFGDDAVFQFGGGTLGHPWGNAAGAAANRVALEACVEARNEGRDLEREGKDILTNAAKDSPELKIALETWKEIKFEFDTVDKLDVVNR
T3 sequence (B7JB29 1-110 partner): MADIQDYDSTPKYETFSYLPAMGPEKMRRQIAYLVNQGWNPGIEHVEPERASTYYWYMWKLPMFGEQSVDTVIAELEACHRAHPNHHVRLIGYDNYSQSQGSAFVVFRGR
T1 sequence (B7JB30 whole entry V471A/N472H/R473K): as the sequence (B7JB30 whole entry) above, with V471A, N472H, R473K counted along it
T1 sequence (B7JB29 entry or part of it, stated change not applied, further chain): as the sequence (B7JB29 1-110 partner) above
T4 sequence (O85040 whole entry): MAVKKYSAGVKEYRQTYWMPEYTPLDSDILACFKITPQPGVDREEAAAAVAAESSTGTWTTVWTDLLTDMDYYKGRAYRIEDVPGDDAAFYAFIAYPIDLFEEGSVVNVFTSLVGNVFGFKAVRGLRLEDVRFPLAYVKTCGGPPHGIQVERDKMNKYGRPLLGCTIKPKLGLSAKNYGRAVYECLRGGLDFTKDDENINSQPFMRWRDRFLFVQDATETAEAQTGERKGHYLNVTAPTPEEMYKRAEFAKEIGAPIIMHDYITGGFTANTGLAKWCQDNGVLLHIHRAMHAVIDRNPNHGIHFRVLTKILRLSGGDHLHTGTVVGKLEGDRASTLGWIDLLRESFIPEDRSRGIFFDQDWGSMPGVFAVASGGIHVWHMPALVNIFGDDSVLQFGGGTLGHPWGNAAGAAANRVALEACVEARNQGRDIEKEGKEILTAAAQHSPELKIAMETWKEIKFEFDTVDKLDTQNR
T4 sequence (P45686 whole entry partner): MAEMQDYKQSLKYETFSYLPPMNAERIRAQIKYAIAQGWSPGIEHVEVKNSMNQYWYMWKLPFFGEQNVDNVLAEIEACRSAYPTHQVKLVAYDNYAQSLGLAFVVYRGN
T2 sequence (B7JB30 whole entry N472H): as the sequence (B7JB30 whole entry) above, with N472H counted along it
T2 sequence (B7JB29 entry or part of it, stated change not applied, further chain): as the sequence (B7JB29 1-110 partner) above
T6 sequence (B7JB16 entry or part of it): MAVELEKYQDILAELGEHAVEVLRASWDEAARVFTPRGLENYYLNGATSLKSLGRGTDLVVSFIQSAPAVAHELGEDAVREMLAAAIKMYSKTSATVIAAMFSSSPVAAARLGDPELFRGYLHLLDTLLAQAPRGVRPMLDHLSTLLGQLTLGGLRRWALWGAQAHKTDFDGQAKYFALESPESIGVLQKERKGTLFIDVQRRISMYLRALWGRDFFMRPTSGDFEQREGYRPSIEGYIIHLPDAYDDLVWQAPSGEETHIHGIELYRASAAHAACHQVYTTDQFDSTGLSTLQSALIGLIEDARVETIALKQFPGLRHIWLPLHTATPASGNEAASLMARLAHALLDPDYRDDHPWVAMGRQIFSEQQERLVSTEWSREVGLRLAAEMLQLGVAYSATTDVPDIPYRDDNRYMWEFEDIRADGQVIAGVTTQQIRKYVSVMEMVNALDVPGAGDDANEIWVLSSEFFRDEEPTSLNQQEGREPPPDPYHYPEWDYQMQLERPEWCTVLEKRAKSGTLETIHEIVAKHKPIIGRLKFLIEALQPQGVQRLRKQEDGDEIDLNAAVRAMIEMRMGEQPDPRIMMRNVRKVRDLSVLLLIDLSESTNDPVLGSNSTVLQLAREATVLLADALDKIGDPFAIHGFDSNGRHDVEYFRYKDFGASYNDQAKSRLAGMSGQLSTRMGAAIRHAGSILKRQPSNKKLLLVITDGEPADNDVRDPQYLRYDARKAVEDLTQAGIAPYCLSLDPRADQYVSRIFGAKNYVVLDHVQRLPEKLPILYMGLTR
T6 sequence (B7JB17 entry or part of it): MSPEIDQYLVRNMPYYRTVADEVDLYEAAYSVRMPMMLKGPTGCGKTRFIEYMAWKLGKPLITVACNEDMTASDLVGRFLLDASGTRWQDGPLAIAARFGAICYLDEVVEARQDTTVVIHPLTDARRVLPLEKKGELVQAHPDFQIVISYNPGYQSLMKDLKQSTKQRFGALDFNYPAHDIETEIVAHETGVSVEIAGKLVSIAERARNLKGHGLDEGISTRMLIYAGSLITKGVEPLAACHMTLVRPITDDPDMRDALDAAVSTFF
T7 sequence (B7JA24 whole entry): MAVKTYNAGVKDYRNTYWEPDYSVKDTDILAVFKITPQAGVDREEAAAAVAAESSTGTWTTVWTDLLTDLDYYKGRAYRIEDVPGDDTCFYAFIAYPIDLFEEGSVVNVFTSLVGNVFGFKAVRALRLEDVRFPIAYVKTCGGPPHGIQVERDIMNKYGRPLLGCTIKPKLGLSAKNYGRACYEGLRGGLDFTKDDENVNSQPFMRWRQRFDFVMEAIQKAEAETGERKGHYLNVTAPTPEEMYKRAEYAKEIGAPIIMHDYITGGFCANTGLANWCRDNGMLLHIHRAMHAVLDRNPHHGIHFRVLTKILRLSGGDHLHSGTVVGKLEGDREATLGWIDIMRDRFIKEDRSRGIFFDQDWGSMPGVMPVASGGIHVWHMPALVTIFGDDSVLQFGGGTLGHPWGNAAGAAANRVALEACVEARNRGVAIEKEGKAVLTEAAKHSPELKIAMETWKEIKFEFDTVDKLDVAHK
T7 sequence (B7JA25 1-118 partner): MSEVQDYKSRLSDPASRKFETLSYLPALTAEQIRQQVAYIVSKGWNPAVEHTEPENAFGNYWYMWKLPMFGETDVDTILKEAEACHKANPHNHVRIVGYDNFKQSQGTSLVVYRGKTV

O=C(O)[C@@](O)(COP(=O)(O)O)[C@H](O)[C@H](O)COP(=O)(O)O (mixture of isomers) [carboxy-arabinitol 1,5-bisphosphate]
inhibited ECM-CABP (ECMC) complex, reactivation by CbbQO activase, coupled spect [1]: mutation at the C terminus of AfL2S2 enhances activation of ECMC complexes by Q1O1
inhibited ECM-CABP (ECMC) complex, reactivation by CbbQO activase, coupled spect [2]: mutation at the C terminus of AfL2S2 enhances activation of ECMC complexes by Q1O1
inhibited ECM-CABP (ECMC) complex, reactivation by CbbQO activase, coupled spect [3]: ability to remove the transition state analog CABP from the A. ferrooxidans form IA^C (AfL2S2) holoenzyme
inhibited ECM-CABP (ECMC) complex, reactivation by CbbQO activase, coupled spect [4]: HnQO was able to remove CABP from its cognate form IA^C rubisco HnLS

Nc1ncnc2c1ncn2[C@@H]1O[C@H](COP(=O)(O)OP(=O)(O)OP(=O)(O)O)[C@@H](O)[C@H]1O [ATP]
ATPase, coupled spectrophotometric assay [5]: The ATPase activity of the purified AfQ3O3 complex was similar to that of the AfQ1O1
ATPase, coupled spectrophotometric assay [6]: The ATPase activity of the purified AfQ3O3 complex was similar to that of the AfQ1O1

A. ferrooxidans CbbQ1-CbbO1 rubisco activase complex (form IA^Q associated)
Rca activity: activation of CABP-inhibited rubisco (ECMC), coupled spectrophotometric rubisco assay, 5% v/v PEG, 20 mM NaHCO3; against wildtype AfL2S2 [7]: 6 fold
Rca activity: activation of CABP-inhibited rubisco (ECMC), coupled spectrophotometric rubisco assay, 5% v/v PEG, 20 mM NaHCO3; against wildtype AfL2S2 [8]: 6 fold

O=C(COP(=O)(O)O)[C@H](O)[C@H](O)COP(=O)(O)O [ribulose 1,5-bisphosphate]
RuBP release rate [9]: The RuBP release rate was derived from the ER time courses
RuBP release rate [10]: (AfL1S1) formed a stable binary complex with RuBP and had the slowest inhibitor release rate
spontaneous RuBP release from ER complex [11]: displayed similar carboxylation kinetics and spontaneous RuBP release under our assay conditions
spontaneous RuBP release from ER complex [12]: displayed similar carboxylation kinetics and spontaneous RuBP release under our assay conditions
RuBP release rate (SynLS (form IB rubisco)): the very loose RuBP-binding phenotype of the cyanobacterial form IB SynLS rubisco
RuBP release rate [13]: The RuBP release rate was derived from the ER time courses

A. ferrooxidans CbbQ3-CbbO3 rubisco activase complex (carboxysomal, form IA^C associated)
Rca activity: activation of CABP-inhibited rubisco (ECMC), coupled spectrophotometric rubisco assay, 13% v/v PEG, 20 mM NaHCO3; against wildtype AfL2S2 [14]: 60 % reduction
Rca activity: activation of CABP-inhibited rubisco (ECMC), coupled spectrophotometric rubisco assay, 13% v/v PEG, 20 mM NaHCO3; against wildtype AfL2S2 [15]: 30 % increase
